According to ChEMBL document CHEMBL3297657, “Synthesis and antitumor activities of novel α-aminophosphonate derivatives containing an alizarin moiety” (Eur J Med Chem, 2014):
Activity calls are given as the source filed them. The rule behind the calls is not given here.

How the values were obtained:
NCI-H460 [1] = test: Cell cycle arrest in human NCI-H460 cells assessed as accumulation at G2 phase at 8 uM after 12 hrs by Rnase A/propidium iodide staining-based flow cytometry (reference value: 33.9%); type: functional
NCI-H460 [2] = test: Induction of apoptosis in human NCI-H460 cells assessed as change in mitochondrial membrane potential at 8 uM by JC-1 staining-based fluorescence microscopy relative to control; type: functional, cell-based; conditions: TDE = time-dependent effect
HepG2 = test: cells; conditions: Homo sapiens, HepG2, 48 h
Description: Cytotoxicity against human HepG2 cells after 48 hrs by MTT assay

NCI-H460 [3] = test: Induction of apoptosis in human NCI-H460 cells assessed as karyopyknosis and chromatin condensation at 8 uM by Hoechst 33258 staining-based fluorescence microscopy relative to control; type: functional, cell-based; conditions: TDE = time-dependent effect
NCI-H460 [4] = test: Cell cycle arrest in human NCI-H460 cells assessed as accumulation at S phase at 8 uM after 12 hrs by Rnase A/propidium iodide staining-based flow cytometry (reference value: 19.41%); type: functional
NCI-H460 [5] = test: Induction of apoptosis in human NCI-H460 cells assessed as viable cells at 8 uM after 12 hrs by Annexin V/propidium iodide staining-based flow cytometry (reference value: 72.2%); type: functional; conditions: NCI-H460, 12 h, read-out: Activity
KB = test: Cytotoxicity against human KB cells after 48 hrs by MTT assay; type: functional, cell-based
NCI-H460 [6] = test: Induction of apoptosis in human NCI-H460 cells assessed as downregulation of Bcl-2 mRNA expression after 24 hrs by qRT-PCR analysis; type: functional, cell-based
NCI-H460 [7] = test: Cell cycle arrest in human NCI-H460 cells assessed as accumulation at S phase at 8 uM after 24 hrs by Rnase A/propidium iodide staining-based flow cytometry (reference value: 19.41%); type: functional
NCI-H460 [8] = test: Induction of apoptosis in human NCI-H460 cells assessed as increase in intracellular ROS generation at 5 to 20 uM after 24 hrs by DCFH-DA staining-based fluorescence microscopy; type: functional, cell-based
NCI-H460 [9] = test: Induction of apoptosis in human NCI-H460 cells assessed as upregulation of TP53 mRNA expression after 24 hrs by qRT-PCR analysis; type: functional, cell-based
NCI-H460 [10] = test: Induction of apoptosis in human NCI-H460 cells assessed as upregulation of CAMK2 mRNA expression after 24 hrs by qRT-PCR analysis; type: functional, cell-based
NCI-H460 [11] = test: Induction of apoptosis in human NCI-H460 cells assessed as karyopyknosis and chromatin condensation at 8 uM after 12 to 48 hrs by Hoechst 33258 staining-based fluorescence microscopy relative to control; type: functional, cell-based
NCI-H460 [12] = test: Induction of apoptosis in human NCI-H460 cells assessed as change in mitochondrial membrane potential at 8 uM after 12 to 48 hrs by JC-1 staining-based fluorescence microscopy relative to control; type: functional, cell-based
NCI-H460 [13] = test: Cell cycle arrest in human NCI-H460 cells assessed as accumulation at S phase at 10 uM after 48 hrs by Rnase A/propidium iodide staining-based flow cytometry (reference value: 19.41%); type: functional
NCI-H460 [14] = test: Cell cycle arrest in human NCI-H460 cells assessed as accumulation at G1 phase at 20 uM after 48 hrs by Rnase A/propidium iodide staining-based flow cytometry (reference value: 46.69%); type: functional
NCI-H460 [15] = test: Induction of apoptosis in human NCI-H460 cells assessed as necrotic cells at 5 uM after 24 hrs by Annexin V/propidium iodide staining-based flow cytometry (reference value: 6.9%); type: functional
NCI-H460 [16] = test: Induction of apoptosis in human NCI-H460 cells assessed as change in mitochondrial membrane potential at 5 to 20 uM after 24 hrs by JC-1 staining-based fluorescence microscopy relative to control; type: functional, cell-based
NCI-H460 [17] = test: Cell cycle arrest in human NCI-H460 cells assessed as accumulation at S phase at 5 uM after 48 hrs by Rnase A/propidium iodide staining-based flow cytometry (reference value: 19.41%); type: functional
NCI-H460 [18] = test: Induction of apoptosis in human NCI-H460 cells assessed as necrotic cells at 8 uM after 12 hrs by Annexin V/propidium iodide staining-based flow cytometry (reference value: 6.9%); type: functional
NCI-H460 [19] = test: Induction of apoptosis in human NCI-H460 cells assessed as viable cells at 20 uM after 24 hrs by Annexin V/propidium iodide staining-based flow cytometry (reference value: 72.2%); type: functional; conditions: NCI-H460, 24 h, read-out: Activity
NCI-H460 [20] = test: Cytotoxicity against human NCI-H460 cells after 48 hrs by MTT assay; type: functional, cell-based; conditions: NCI-H460, 48 h
NCI-H460 [21] = test: Induction of apoptosis in human NCI-H460 cells assessed as late apoptotic cells at 8 uM after 24 hrs by Annexin V/propidium iodide staining-based flow cytometry (reference value: 14.1%); type: functional
NCI-H460 [22] = test: Induction of apoptosis in human NCI-H460 cells assessed as early apoptotic cells at 5 uM after 24 hrs by Annexin V/propidium iodide staining-based flow cytometry (reference value: 6.8%); type: functional
NCI-H460 [23] = test: Cell cycle arrest in human NCI-H460 cells assessed as accumulation at G1 phase at 8 uM after 24 hrs by Rnase A/propidium iodide staining-based flow cytometry (reference value: 46.69%); type: functional
NCI-H460 [24] = test: Cell cycle arrest in human NCI-H460 cells assessed as accumulation at G1 phase at 5 uM after 48 hrs by Rnase A/propidium iodide staining-based flow cytometry (reference value: 46.69%); type: functional
NCI-H460 [25] = test: Induction of apoptosis in human NCI-H460 cells assessed as late apoptotic cells at 10 uM after 24 hrs by Annexin V/propidium iodide staining-based flow cytometry (reference value: 14.1%); type: functional
HeLa = test: cells; conditions: Homo sapiens, 48 h
Description: Cytotoxicity against human HeLa cells after 48 hrs by MTT assay

NCI-H460 [26] = test: Induction of apoptosis in human NCI-H460 cells assessed as late apoptotic cells at 8 uM after 12 hrs by Annexin V/propidium iodide staining-based flow cytometry (reference value: 14.1%); type: functional
NCI-H460 [27] = test: Induction of apoptosis in human NCI-H460 cells assessed as viable cells at 8 uM after 48 hrs by Annexin V/propidium iodide staining-based flow cytometry (reference value: 72.2%); type: functional; conditions: NCI-H460, 48 h, read-out: Activity
NCI-H460 [28] = test: Cell cycle arrest in human NCI-H460 cells assessed as accumulation at G1 phase at 8 uM after 12 hrs by Rnase A/propidium iodide staining-based flow cytometry (reference value: 46.69%); type: functional
NCI-H460 [29] = test: Induction of apoptosis in human NCI-H460 cells assessed as necrotic cells after 24 hrs by Annexin V/propidium iodide staining-based flow cytometry; type: functional, cell-based
NCI-H460 [30] = test: Induction of apoptosis in human NCI-H460 cells assessed as viable cells after 24 hrs by Annexin V/propidium iodide staining-based flow cytometry; type: functional, cell-based
NCI-H460 [31] = test: Cell cycle arrest in human NCI-H460 cells assessed as accumulation at G2 phase at 5 uM after 48 hrs by Rnase A/propidium iodide staining-based flow cytometry (reference value: 33.9%); type: functional
NCI-H460 [32] = test: Induction of apoptosis in human NCI-H460 cells assessed as early apoptotic cells at 5 to 20 uM after 24 hrs by Annexin V/propidium iodide staining-based flow cytometry relative to control; type: functional, cell-based
NCI-H460 [33] = test: Induction of apoptosis in human NCI-H460 cells assessed as caspase-9 activation after 24 hrs by qRT-PCR analysis; type: functional, cell-based

CCOP(=O)(OCC)C(NC(=O)C(C)Oc1ccc2c(c1O)C(=O)c1ccccc1C2=O)c1cccc2ccccc12 (stereo not drawn)
Activity (NCI-H460 [1]): 34.32% | Activity (NCI-H460 [2]): tde | IC50 (HepG2): 40.5 µM | Activity (NCI-H460 [3]): tde | Activity (NCI-H460 [4]): 0.11% | viability at 8 µM (NCI-H460 [5]): 70.9% | IC50 (KB): 1.02 µM | Activity (NCI-H460 [6]): Dose-dependent effect | Activity (NCI-H460 [7]): 1.11% | Activity (NCI-H460 [8]): Active | Activity (NCI-H460 [9]): Dose-dependent effect | Activity (NCI-H460 [10]): Dose-dependent effect | Activity (NCI-H460 [11]): Active | Activity (NCI-H460 [12]): Active | Activity (NCI-H460 [13]): 15.41% | Activity (NCI-H460 [14]): 61.6% | Activity (NCI-H460 [15]): 1.4% | Activity (NCI-H460 [16]): Active | Activity (NCI-H460 [17]): 17.02% | Activity (NCI-H460 [18]): 0.9% | viability at 20 µM (NCI-H460 [19]): 43.4% | IC50 (NCI-H460 [20]): 6.83 µM | Activity (NCI-H460 [21]): 13.5% | Activity (NCI-H460 [22]): 10.9% | Activity (NCI-H460 [23]): 66.33% | Activity (NCI-H460 [24]): 57.2% | Activity (NCI-H460 [25]): 18.6% | IC50 (HeLa): 15 µM | Activity (NCI-H460 [26]): 8.3% | viability at 8 µM (NCI-H460 [27]): 26.6% | Activity (NCI-H460 [28]): 65.57% | Activity (NCI-H460 [29]): Dose-dependent effect | Activity (NCI-H460 [30]): Dose-dependent effect | Activity (NCI-H460 [31]): 25.78% | Activity (NCI-H460 [32]): Active | Activity (NCI-H460 [33]): Dose-dependent effect

CCOP(=O)(OCC)C(NC(=O)C(C)Oc1ccc2c(c1O)C(=O)c1ccccc1C2=O)c1ccccc1OC (stereo not drawn)
Activity (NCI-H460 [1]): 27.54% | Activity (NCI-H460 [2]): tde | IC50 (HepG2): 88.2 µM | Activity (NCI-H460 [3]): tde | Activity (NCI-H460 [4]): 15.62% | viability at 8 µM (NCI-H460 [5]): 71.9% | IC50 (KB): 0.88 µM | Activity (NCI-H460 [6]): Dose-dependent effect | Activity (NCI-H460 [7]): 13.09% | Activity (NCI-H460 [8]): Active | Activity (NCI-H460 [9]): Dose-dependent effect | Activity (NCI-H460 [10]): Dose-dependent effect | Activity (NCI-H460 [11]): Active | Activity (NCI-H460 [12]): Active | Activity (NCI-H460 [13]): 9.84% | Activity (NCI-H460 [14]): 65.1% | Activity (NCI-H460 [15]): 2.8% | Activity (NCI-H460 [16]): Active | Activity (NCI-H460 [17]): 8.74% | Activity (NCI-H460 [18]): 0.7% | viability at 20 µM (NCI-H460 [19]): 30.7% | IC50 (NCI-H460 [20]): 9.8 µM | Activity (NCI-H460 [21]): 11.1% | Activity (NCI-H460 [22]): 26.6% | Activity (NCI-H460 [23]): 64.92% | Activity (NCI-H460 [24]): 56.85% | Activity (NCI-H460 [25]): 17.8% | IC50 (HeLa): 28.2 µM | Activity (NCI-H460 [26]): 5.6% | viability at 8 µM (NCI-H460 [27]): 28.2% | Activity (NCI-H460 [28]): 56.84% | Activity (NCI-H460 [29]): Dose-dependent effect | Activity (NCI-H460 [30]): Dose-dependent effect | Activity (NCI-H460 [31]): 34.41% | Activity (NCI-H460 [32]): Active | Activity (NCI-H460 [33]): Dose-dependent effect

CCOP(=O)(OCC)C(NC(=O)C(C)Oc1ccc2c(c1O)C(=O)c1ccccc1C2=O)c1ccccc1F (stereo not drawn)
Activity (NCI-H460 [1]): 29.57% | Activity (NCI-H460 [2]): tde | IC50 (HepG2): 21 µM | Activity (NCI-H460 [3]): tde | Activity (NCI-H460 [4]): 14.65% | viability at 8 µM (NCI-H460 [5]): 61.3% | IC50 (KB): 0.7 µM | Activity (NCI-H460 [6]): Dose-dependent effect | Activity (NCI-H460 [7]): 16.3% | Activity (NCI-H460 [8]): Active | Activity (NCI-H460 [9]): Dose-dependent effect | Activity (NCI-H460 [10]): Dose-dependent effect | Activity (NCI-H460 [11]): Active | Activity (NCI-H460 [12]): Active | Activity (NCI-H460 [13]): 13.42% | Activity (NCI-H460 [14]): 68.89% | Activity (NCI-H460 [15]): 0.3% | Activity (NCI-H460 [16]): Active | Activity (NCI-H460 [17]): 12.34% | Activity (NCI-H460 [18]): 0.5% | viability at 20 µM (NCI-H460 [19]): 33.6% | IC50 (NCI-H460 [20]): 3.8 µM | Activity (NCI-H460 [21]): 13% | Activity (NCI-H460 [22]): 28.9% | Activity (NCI-H460 [23]): 60.05% | Activity (NCI-H460 [24]): 64.52% | Activity (NCI-H460 [25]): 6.8% | IC50 (HeLa): 21.1 µM | Activity (NCI-H460 [26]): 7.9% | viability at 8 µM (NCI-H460 [27]): 31.1% | Activity (NCI-H460 [28]): 55.78% | Activity (NCI-H460 [29]): Dose-dependent effect | Activity (NCI-H460 [30]): Dose-dependent effect | Activity (NCI-H460 [31]): 23.14% | Activity (NCI-H460 [32]): Active | Activity (NCI-H460 [33]): Dose-dependent effect
